According to publication PMC7582544, “Bioactive Ent-Kaurane Diterpenes Oridonin and Irudonin Prevent Cancer Cells Migration by Interacting with the Actin Cytoskeleton Controller Ezrin” (International Journal of Molecular Sciences, 2020):
pEC50, pIC50: −log10 of the molar value. Where two headings read alike, the source gives them in different places.

Columns and labels:
[1] = target: T1, Ezrin (Homo sapiens, UniProt P15311); assay: CETSA dose response at […] °C in A375 cells (EC50 […] in MKN28), Tm shift […] to […] °C; DARTS with MS and Western blot; assay type: cell-based
T1 construct: gene EZR

[2] = system: MKN28; assay: cells; design: species or system C2C12, A375; PrestoBlue cell proliferation/viability assay, absorbance 570 nm, 24 h; details: Homo sapiens, MKN-28, 24 h
[3] = system: A375; assay: cells; design: species or system C2C12, MKN28; PrestoBlue cell proliferation/viability assay, absorbance 570 nm, 24 h; details: Homo sapiens, A-375, 24 h
[4] = system: C2C12; assay: cells; design: species or system MKN28, A375; PrestoBlue cell proliferation/viability assay, absorbance 570 nm, 24 h; details: Mus musculus, 24 h, non-cancer myoblasts
Procedure: Cell proliferation rate was evaluated measuring mitochondrial metabolic activity through the use of PrestoBlueTM (PB) (Cat. N. A13262, Invitrogen), employed according to the manufacturer’s protocol. Cells were plated onto 96-well plates (8000 cells/well), treated with increasing concentrations (10–60 μM) of Ori or Iru for 24 h and then incubated with PB reagent at 10% final concentration for 1 h. The absorbance was monitored at 570 nm with a reference wavelength set a 600 nm and using a microplate reader (Multiskan Go, Thermo Scientific, Waltham, MA, USA). Cell viability was expressed as a percentage relative to the un-treated cells cultured in DMEM with 0.1% DMSO and set to 100%. The dose compounds reducing cell number by 50% (IC50 values) were calculated using the respective dose–response curves according to the manufacturer’s protocol. IC50 values were used for the subsequent proteomic experiments. Instead, the non-toxic concentration of 10 μM was used for the functional assays. […] To that aim, we first evaluated the cytotoxic potential of both diterpenes on the C2C12 cells; therefore, we exposed for 24 h C2C12 myoblasts to increasing concentrations (10–60 μM) of Ori or of Iru, and, subsequently, we performed cell proliferation assay (Figure 1).

[5] = target: T1, Ezrin; assay: CETSA dose response at […] °C in MKN28 cells (EC50 […] in A375), Tm shift […] to […] °C; DARTS with MS and Western blot; assay type: cell-based

T1 sequence (P15311 whole entry): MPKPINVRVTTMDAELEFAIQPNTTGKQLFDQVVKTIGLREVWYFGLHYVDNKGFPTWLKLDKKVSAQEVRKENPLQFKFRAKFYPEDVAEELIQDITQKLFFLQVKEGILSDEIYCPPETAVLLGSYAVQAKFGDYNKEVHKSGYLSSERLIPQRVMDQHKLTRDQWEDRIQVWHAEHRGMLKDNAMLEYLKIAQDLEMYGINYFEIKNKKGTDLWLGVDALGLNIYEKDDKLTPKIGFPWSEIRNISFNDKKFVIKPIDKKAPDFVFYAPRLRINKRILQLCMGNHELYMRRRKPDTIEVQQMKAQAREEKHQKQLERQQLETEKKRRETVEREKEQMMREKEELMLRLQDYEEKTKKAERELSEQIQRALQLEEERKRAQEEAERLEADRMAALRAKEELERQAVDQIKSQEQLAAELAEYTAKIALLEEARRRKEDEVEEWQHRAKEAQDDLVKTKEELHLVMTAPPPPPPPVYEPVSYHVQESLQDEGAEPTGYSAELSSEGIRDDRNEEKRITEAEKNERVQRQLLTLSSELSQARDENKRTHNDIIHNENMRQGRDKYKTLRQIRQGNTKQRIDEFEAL

pEC50 [1]	pIC50 ([2]; read-out: Ori IC50)	pIC50 ([3]; read-out: Ori IC50)	pEC50 [5]	pIC50 ([2]; read-out: Iru IC50)	pIC50 ([3]; read-out: Iru IC50)	Compound	pIC50 ([4]; read-out: Ori IC50)	pIC50 ([4]; read-out: Iru IC50)
4.72	4.70	4.60	–	–	–	C=C1C(=O)[C@]23[C@H](O)[C@H]1CC[C@H]2[C@@]12CO[C@]3(O)[C@@H](O)[C@@H]1C(C)(C)CC[C@@H]2O [Ori, (1S,2S,5S,8R,9S,10S,11R,15S,18R)-9,10,15,18-tetrahydroxy-12,12-dimethyl-6-methylidene-17-oxapentacyclo (7.6.2.15,8.01,11.02,8) octadecan-7-one]	4.52	–
–	–	–	4.89	4.60	4.46	C=C1C(=O)[C@@]23C(CC[C@@H]1[C@H]2O)[C@]12CCCC(C)(C)C1[C@H](O)[C@@]3(O)O[C@H]2O (some centres unmarked) [Iru]	–	4.30
